US20220268782A1, “METHODS FOR PREDICTING AND TREATING CARDIAC DYSFUNCTION” (INSERM (INSTITUT NATIONAL DE LA SANTÉ EAT DE LA RECHERCHE …, priority 2019, published 2022)

Experiments:
Assay type in all cases: cell-based
C2C12 myoblasts [1] = experiment: PA-induced senescence in C2C12 myoblasts (immunoblot of senescence markers, EdU incorporation); details: C2C12 cells
Method: (§1) Cells were washed briefly with ice-cold 1×PBS, scraped in 400 μL T-PER lysis buffer (ThermoFisher) supplemented with 0.1 mM phenylmethylsulphonyl fluoride (PMSF) and protease/phosphatase inhibitor cocktail tablet (ThermoFisher). Pulverised tissue samples (20-30 mg) were lysed in the same buffer accelerated by sonication and passing through a 21 G needle. To pellet any debris, lysates were centrifuged at 10,000 g for 10 minutes at 4° C., with the supernatant transferred to fresh tubes. Protein concentrations were determined with Bradford assay (Biorad) and lysates were diluted to equal concentration with lysis buffer. Protein lysates were then mixed with Laemmli buffer, vortexed and heated to 95° C. for 5 min. Equal amounts of protein lysates in parallel with protein molecular weight marker (ThermoFisher) were loaded onto pre-cast polyacrylamide gels (Nupage 10 or 12% Bis Tris gel, Novex, Invitrogen) and separated by electrophoresis at 200V for 1 hour. Proteins were transferred onto polyvinylidene difluoride (PVDF) membrane (Invitrogen) using an electrophoretic transfer cell (Mini Trans-Blot, Bio-Rad) in ice-cold transfer buffer (48 mM Tris base, […], 0.1% SDS, 20% methanol (v/v)) at 300 mA for 2 hours. Membranes were blocked in 1× skimmed milk (ThermoFisher) for 1 hour at room temperature, followed by overnight incubation with primary antibody diluted in blocking buffer at 4° C. Next day membranes were washed, followed by 60 minutes incubation in the corresponding horseradish peroxidase (HRP)-conjugated secondary antibody diluted 1:2000-10000 in blocking buffer (all Abcam). Blots were developed using enhanced chemiluminescence (ECL) reagents (normal, Prime & Select) and digital images were acquired using an imaging system (Azure Biosystems). Membranes were usually stripped of antibodies and reprobed with an antibody targeting a protein serving as loading control (α-actinin for hearts & β-actin for all others). For this procedure, membranes were placed in Guanidine-HCl-based stripping solution (6M Guanidine-HCl, 0.2% Nonidet P-40, 0.1M β-mercaptoethanol, 20 mM Tris-HCl, pH 7.5 and 100 mM 2-mercaptoethanol) and incubated for 10 minutes at room temperature with gentle agitation, followed by extensive washing and re-blocking.^5
(§2) C2C12 (ATCC® CRL-1772™) myoblasts maintained in DMEM supplemented with L-glutamine (2 mM), penicillin/streptomycin (1%) and 5% fetal bovine serum (FBS) were seeded either at a density of 5×10^4 cells (<50%) per well in 24-well plates or 10^4 cells in 4-well chamber slides. Cells were with L-phenylalanine (1-10 mM)+BH4 (10 μM) and incubation with increasing concentrations of N-acetylcysteine (0.5, 2.5, 5 mM) vs. vehicle overnight as indicated. Cells were analysed for oxidative stress with MitoSOX™ (mitochondrial superoxide; 5 μM, ThermoFisher Scientific), CellROX™ (cytosolic superoxide; 5 μM, ThermoFisher Scientific), gene or protein expression, or various metabolites (see below).

C2C12 myoblasts [2] = experiment: Oxidative stress in C2C12 cells (CellROX cytosolic superoxide, MitoSOX mitochondrial superoxide, GSH)
Method: as §2
(§3) Levels of reduced glutathione (GSH; ThermoFisher), phenylalanine (BioVision) and tyrosine (BioVision) were determined from cells or plasma, with respective agents/kits following the manufacturer's recommendations. Specifically, GSH levels were estimated with the aid of ThiolTracker™ Violet fluorescent probe (ThermoFisher). Plasma and liver phenylalanine levels were determined using an enzyme-coupled, fluorometric method (BioVision). Briefly, samples were deproteinized via trichloroacetate precipitation, neutralised, tyrosinase-treated (to remove tyrosine that may interfere) and diluted to fit in the standard curve. Fluorescence reading took place at 587 nm after excitation at 535 nm. Levels of tyrosine in cells or conditioned media were determined after deproteinization using 10 kDa cut-off columns with an enzyme-coupled, colorimetric method with reading at 491 nm (BioVision).

AML-12 hepatocytes = experiment: AML-12 hepatocytes: p21, Pah immunoblot and tyrosine production; details: Nutlin3a vs. vehicle
Method: as §1
AML12 cells (ATCC® CRL-2254™) were maintained in DMEM/F-12 (1:1) culture media supplemented with 10% FBS, 10 μg/ml insulin, 5.5 μg/ml transferrin, 5 ng/ml selenium, 40 ng/ml dexamethasone and 1% penicillin/streptomycin. Cells were sub-cultivated from subconfluent flasks with a ratio from 1:4 to 1:8. For WB analysis, cells were plated on 6-well plates and harvested at 80-90% of confluence. AML12 cells were transfected with indicated siRNA (Table 2) at 80% confluence using Lipofectamine RNAiMAX Transfection Reagent (ThermoFischer Scientific 13778030) following the manufacturer's instructions. Transfection efficiency was constantly checked using BLOCK-IT Alexa Fluor Red Fluorescent Control (ThermoFischer Scientific 14750100).
as §3

With `N[C@@H](Cc1ccc(Cl)cc1)C(=O)O` (racemic) [4-CPA, 4-chlorophenylalanine] the “BH4 antagonism of PA-dependent senescence” value (C2C12 myoblasts [1]; PA 5 mM + BH4 10 μM + 4-CPA 1.5 mM, FIG. 1c-d) was “reversed” and the “BH4 rescue of superoxide levels” value (C2C12 myoblasts [2]; PA + BH4 + 4-CPA, FIG. 1f) was “prevented”.
For `CC(=O)N[C@@H](CS)C(=O)O` [NAC, N-acetylcysteine], the “p21 induction by PA” value (C2C12 myoblasts [1]; PA + N-acetylcysteine (0.5, 2.5, 5 mM), data not shown) was “failed to prevent”, the “cytosolic superoxide levels under PA treatment” value (C2C12 myoblasts [2]; PA plus co-treatment (BH4 10 μM or NAC), FIG. 1f) was “restored normal” and the “reduced glutathione (GSH) levels under PA treatment” value (C2C12 myoblasts [2]; PA plus co-treatment, data not shown) was “restored normal”.
In the case of `COc1ccc(C2=N[C@@H](c3ccc(Cl)cc3)[C@@H](c3ccc(Cl)cc3)N2C(=O)N2CCNC(=O)C2)c(OC(C)C)c1` [Nutlin3a], the Pah (AML-12 hepatocytes; FIG. 4o) was “downregulated”, the “hepatocyte senescence (i.e. p-p53 and p21)” value (AML-12 hepatocytes; FIG. 4o) was “induced” and the “tyrosine production (tyrosine levels in media)” value (AML-12 hepatocytes; FIG. 4p) was “depressed”.
